Test results as given in publication PMC9607081 (Membranes, 2022).
Where a chain is given by its changes, count along the chain named. Read-outs that look alike come from different tables or passages of the source.

Experiments:
[1] = target: T1, human GlyR α1 subunit P146A (Homo sapiens, UniProt P23415, P174A); experiment: Two-electrode voltage clamp of Xenopus oocytes expressing P146A GlyR; format: cell-based; conditions: for nH (Hill coefficient): Table 1, n = 5; for EC50: Table 1, −60 mV
T1 construct: expressed in transfected cells; host or cells: Xenopus laevis oocytes injected with receptor mRNA
T1 sequence (P23415 29-457 P174A): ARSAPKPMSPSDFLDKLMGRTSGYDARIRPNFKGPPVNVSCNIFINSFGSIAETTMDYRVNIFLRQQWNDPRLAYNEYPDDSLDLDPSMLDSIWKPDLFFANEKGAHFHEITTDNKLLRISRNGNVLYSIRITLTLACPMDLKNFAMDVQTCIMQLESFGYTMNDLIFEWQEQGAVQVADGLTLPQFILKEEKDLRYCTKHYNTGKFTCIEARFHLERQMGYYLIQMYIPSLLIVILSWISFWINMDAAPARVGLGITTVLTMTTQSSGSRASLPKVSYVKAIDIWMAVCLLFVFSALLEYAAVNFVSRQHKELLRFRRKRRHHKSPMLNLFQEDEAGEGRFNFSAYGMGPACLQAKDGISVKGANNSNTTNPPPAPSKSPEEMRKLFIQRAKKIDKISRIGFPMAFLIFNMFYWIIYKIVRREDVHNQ
Procedure: Injection volumes were 50–100 nL per cell.
All experiments were performed at 22–25 °C. […] The holding potential was −60 mV unless otherwise specified.

[2] = target: T2, human GlyR α1 subunit P146 (CysL) substituted with Pip (Homo sapiens, UniProt P23415, P174X); experiment: TEVC, oocytes, nonsense suppression, P146 Pip; format: cell-based; conditions: for EC50: n = 3
T2 sequence (P23415 29-457 P174X): T1 sequence (P23415 29-457 P174A) with A146X
Procedure: (§1) The cDNA for the human GlyR α1 subunit was in pGEMHE (ThermoFischer Scientific, Bishops Stortford, UK). Site-directed mutagenesis was performed using QuikChange (Agilent Technologies, Milton Keynes, UK) to generate the appropriate codon. For non-canonical amino acid mutants and conventional mutants generated by nonsense suppression, the site of interest was mutated to the TAG stop codon. Receptor mRNA was then prepared by in vitro runoff transcription using the Ambion T7 mMessage mMachine kit (ThermoFischer Scientific, Bishops Stortford, UK). Noncanonical amino acids were ligated to tRNA as previously described.
(§2) Stage V-VI oocytes of Xenopus laevis were harvested and injected with RNAs as described previously. For nonsense suppression experiments, each cell was injected with 50–100 ng each of receptor mRNA and tRNA charged with the appropriate Pro analogue ~48 h before recording. For wild type and conventional mutants, each cell received a single injection of 10–25 ng of receptor mRNA ~24 h before recording. Injection volumes were 50–100 nL per cell.
(§3) As a negative control for suppression experiments at each site, unligated tRNA was co-injected with mRNA in the same manner as charged tRNA. […] Pro recovery (injecting tRNA charged with Pro to regenerate a wild type channel via nonsense suppression) was used alongside Pro analogues as a positive control.
(§4) Two-electrode voltage clamping of Xenopus oocytes was performed using standard electrophysiological procedures as previously, using an OpusXpress system (Axon Instruments, Inc., Union City, CA, USA). All experiments were performed at 22–25 °C. […] The holding potential was −60 mV unless otherwise specified. […] Data were analysed using Prism (GraphPad Software Inc., San Diego, CA, USA), fitting concentration-response data to the four-parameter logistic equation. Statistical analysis was performed using ANOVA with a Dunnett’s multiple comparisons post test.

[3] = target: T3, human GlyR α1 subunit P146 (CysL) substituted with CFP (Homo sapiens, UniProt P23415, P174X); experiment: TEVC, oocytes, nonsense suppression, P146 CFP; format: cell-based
T3 sequence (P23415 29-457 P174X): T1 sequence (P23415 29-457 P174A) with A146X
Procedure: as §1, §2, §3, §4

[4] = system: human GlyR α1 subunit P30 (α1β1L) substituted with TFP
Procedure: as §1, §2, §3, §4

[5] = system: human GlyR α1 subunit P230 (M1) substituted with CFP
Procedure: as §1, §2, §3, §4

[6] = system: human GlyR α1 subunit P230 (M1) substituted with Pip
Procedure: as §1, §2, §3, §4

[7] = system: human GlyR α1 subunit P146 (CysL) substituted with TFP
Procedure: as §1, §2, §3, §4

[8] = system: human GlyR α1 subunit P96 (loopA) substituted with Pip
Procedure: as §1, §2, §3, §4

[9] = system: human GlyR α1 subunit P30 (α1β1L) substituted with 2MeP; conditions: Table 2, P30 2MeP, n = 5
Procedure: as §1, §2, §3, §4

[10] = system: human GlyR α1 subunit P96 (loopA) substituted with Vah
Procedure: as §1, §2, §3, §4

[11] = system: human GlyR α1 subunit P30 (α1β1L) substituted with CFP
Procedure: as §1, §2, §3, §4

[12] = system: human GlyR α1 subunit P230 (M1) substituted with TFP
Procedure: as §1, §2, §3, §4

[13] = target: human GlyR α1 subunit P96 (loopA) substituted with Pro (Homo sapiens, UniProt P23415); conditions: Table 2, n = 5
Procedure: as §1, §2, §3, §4

[14] = Table 2, nonsense suppression, n = 5
[15] = Table 2, nonsense suppression, n = 4
[16] = Table 2, nonsense suppression, n = 6

Chain of human GlyR α1 subunit P96 (loopA) substituted with Pro (P23415 29-457): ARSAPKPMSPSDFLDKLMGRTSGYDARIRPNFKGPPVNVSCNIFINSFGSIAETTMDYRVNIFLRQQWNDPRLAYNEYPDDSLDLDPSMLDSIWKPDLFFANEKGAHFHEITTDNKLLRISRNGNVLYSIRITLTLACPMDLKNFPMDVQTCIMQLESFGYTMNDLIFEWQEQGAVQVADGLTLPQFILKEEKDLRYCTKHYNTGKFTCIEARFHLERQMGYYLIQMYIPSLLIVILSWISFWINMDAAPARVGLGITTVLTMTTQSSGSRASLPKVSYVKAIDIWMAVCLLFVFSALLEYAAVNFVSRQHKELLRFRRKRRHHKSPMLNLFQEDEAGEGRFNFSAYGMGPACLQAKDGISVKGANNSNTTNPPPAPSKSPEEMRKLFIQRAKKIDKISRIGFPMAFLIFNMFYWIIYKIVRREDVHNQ

NCC(=O)O [Gly, glycine]
nH (Hill coefficient) [1]: 2.4 ± 0.7
nH ([2]; Table 2, n = 5): 1.9 ± 0.7
nH ([2]; Table 3, n = 3): 2.7 ± 0.9
nH ([3]; Table 2, P146 CFP, n = 6): 3.7 ± 0.6
nH ([3]; Table 3, P146 CFP, n = 3): 3.0 ± 0.5
nH ([4]; Table 2, n = 5): 2.7 ± 1.3
EC50 [4, 14]: 97 µM
pEC50 [4, 14]: 4.013 ± 0.05 M
nH ([5]; Table 2, n = 4): 1.4 ± 0.2
EC50 [5, 15]: 74 µM
pEC50 [5, 15]: 4.131 ± 0.04 M
nH ([6]; Table 2, n = 4): 1.1 ± 0.2
EC50 [6, 15]: 68 µM
pEC50 [6, 15]: 4.166 ± 0.08 M
nH ([7]; Table 2, n = 5): 2.3 ± 0.4
EC50 [7, 14]: 156 µM
pEC50 [7, 14]: 3.806 ± 0.05 M
nH ([8]; Table 2, n = 4): 2.9 ± 0.3
EC50 [8, 15]: 215 µM
pEC50 [8, 15]: 3.667 ± 0.02 M
nH [9]: 1.6 ± 0.3
EC50 ([9]; nonsense suppression): 368 µM
pEC50 ([9]; nonsense suppression): 3.434 ± 0.06 M
nH ([10]; Table 2, n = 4): 1.5 ± 0.3
EC50 [10, 15]: 94 µM
pEC50 [10, 15]: 4.029 ± 0.05 M
nH ([11]; Table 2, n = 6): 2.8 ± 0.7
EC50 [11, 16]: 150 µM
pEC50 [11, 16]: 3.825 ± 0.06 M
nH ([12]; Table 2, n = 4): 3.0 ± 1.4
EC50 [12, 15]: 125 µM
pEC50 [12, 15]: 3.904 ± 0.06 M
nH [13]: 2.7 ± 1.1

NCCS(=O)(=O)O [Tau, taurine]
nH (Hill coefficient) [1]: 1.5 ± 0.3
EC50 ([1]; n = 5, read-out: EC50): 1410 µM
EC50 ([1]; n = 5, read-out: pEC50 (converted)): 1410 µM
% ImaxTau /ImaxGly ([1]; n = 5): 39 ± 3 %
EC50 ([2]; EC50, Table 3, nonsense suppression): 757 µM
nH ([2]; Table 3, n = 3): 1.8 ± 0.3
Emax ([2]; Table 3, n = 3, read-out: % ImaxTau /ImaxGly): 64 ± 7%
EC50 ([2]; pEC50, Table 3, nonsense suppression): 757 µM
EC50 [3]: 579 µM
nH ([3]; Table 3, P146 CFP, n = 3): 2.1 ± 0.2
Emax ([3]; Table 3, P146 CFP, n = 3, read-out: % ImaxTau /ImaxGly): 71 ± 3%
